Patent publication US20090035292A1, “Use of phosphatases to treat neuroblastomas and medulloblastomas” (priority 2007, published 2009)
“Also recorded” adds a separate entry of the source. Where two headings read alike, the source gives them in different places.

Columns and labels:
[1] = tested on: neuroblastoma; conditions: given for 6 months to high risk patients after chemotherapeutic, surgical and radiation treatments (Matthay et al., 1999); cited from earlier work
[2] = tested on: neuroblastoma cell line, SH-SY5Y; experiment: Proliferation of neuroblastoma cell line SH-SY5Y in vitro; type: cell-based, human
Procedure: FIG. 1. […] The neuroblastoma cell line, SH-SY5Y, was exposed to Compound 100 for 4 or 7 days at concentrations of 1 μM (squares), 5 μM (triangles), 10 μM (short dashed line), 20 μM (diamonds), 50 μM (long dashed line) or vehicle only (circles).
FIG. 2. […] The neuroblastoma cell line, SH-SY5Y, was exposed to 5 μM Compound 100 (squares), 25 μM ATRA (circles), the combination of 5 μM Compound 100 and 25 μM ATRA (dashed line) or vehicle only (black line) for 4 or 7 days. […]
The human neuroblastoma cell line SH-SY5Y is available from the European Collection of Cell Cultures, Health Protection Agency, Porton Down SP40JG Salisbury, Wiltshire UK, as ECACC No. 94030304.
The neuroblastoma cell line, SHSY5Y, was exposed to the cantharidin analog Compound 100 for 4 or 7 days at concentrations of 1, 5, 10, 20 and 50 μM.
Subsequently, SH-SY5Y cells were exposed to Compound 100 at a concentration of 5 μM, ATRA at 25 μM or the combination of the two drugs at the aforementioned doses for 4 or 7 days. […]

[3] = tested on: medulloblastoma cell line, DAOY; experiment: Proliferation of medulloblastoma cell line DAOY in vitro; type: cell-based, human
Procedure: FIG. 4. […] The medulloblastoma cell line, DAOY, was exposed to 20 μM Compound 100 (squares), 5 μM Compound 100 (triangles), 1 μM Compound 100 (x's) or vehicle only (diamonds) for 3 days.
FIG. 5. […] The medulloblastoma cell line, DAOY, was exposed to 50 μM ATRA (squares), 20 μM ATRA (triangles), 5 μM ATRA (X's) or vehicle only (diamonds) for 3 days.
FIG. 6. […] The medulloblastoma cell line, DAOY, was exposed to 2 mM valproic acid (squares), 1 mM valproic acid (triangles), 0.5 mM valproic acid (X's) or vehicle only (diamonds) for 3 days.
The human medulloblastoma cell line DAOY is available from the American Type Culture Collection (ATCC), P.O. Box 1549, Manassas, Va., 20108, as ATCC No. HTB-186.
The medulloblastoma cell line, DAOY, was exposed to the cantharidin analog, Compound 100 at concentrations of 1 μM, 5 μM and 20 μM and evaluated for cellular proliferation over the course of three days. […] Therefore, Compound 100 even at low concentration is capable of preventing cellular proliferation.
To confirm these observations, cultured DAOY cells were treated with 50 μM, 20 μM, 5 μM or vehicle only for three days and examined for cellular proliferation. […] Consequently, because it has been determined that proliferation of medulloblastoma cells is inhibited by Compound 100, ATRA and valproic acid as single agent, it is reasonable to expect that the combination of compound 100 with each of these compounds or a regimen of all three agents may be effective in the treatment of medulloblastoma.
The medulloblastoma cell line, DAOY, was exposed to the HDAC inhibitor, Compound 205 at 10 μM, ATRA at 50 μM, and the compound 205 at 10 μM combined with ATRA at 50 μM, and evaluated for cellular proliferation over the course of seven days. […] (FIG. 8) Therefore, we have shown that Compound 205 is active against medulloblastoma cell line DAOY.

[4] = tested on: neuroblastoma cell line, SH-SY5Y; conditions: cited from earlier work
[5] = tested on: medulloblastoma cell line, DAOY; conditions: cited from earlier work
[6] = tested on: medulloblastoma cell line DAOY xenograft tumors; experiment: DAOY xenograft tumors in SCID mice; type: in vivo; conditions: 1.5 mg/kg daily intraperitoneally for 21 days, measured at days 7, 14 and 21 of treatment, vs vehicle (FIG. 7)
Procedure: DAOY cells (5 million) were implanted subcutaneously in the flank of SCID mice (Day 0). After the xenografts reached a size of ˜130 cubic mm, treatment was instituted with vehicle alone (control), compound 100 (1.5 mg/kg), or compound 102 (1.5 mg/kg) daily intraperitoneally for 21 days (beginning at day 7). Xenograft masses were measured at days 7, 14 and 21 of treatment.

[7] = tested on: neuroblastoma cell line SHSY xenograft; experiment: SHSY xenograft in SCID mice; type: in vivo; conditions: measured day 7 and day 14, vs vehicle (FIG. 9)
Procedure: (§1) SHSY cells (5 million) were implanted subcutaneously in the flank of SCID mice. After the xenografts reached a size of ˜100 cubic mm, treatment was instituted with vehicle alone (control), compound 100 (1.5 mg/kg) or compound 205 (10 mg/kg) daily intraperitoneally for 14 days. Xenograft masses were measured day 7 and day 14 of treatment.
as §1, with “Compound” for “compound”

[8] = tested on: human glioblastoma multiforme; conditions: cited from earlier work
[9] = compound 205 at 10 μM combined with ATRA at 50 μM, seven days (FIG. 8)

CC1=C(/C=C/C(C)=C/C=C/C(C)=C\C(=O)O)C(C)(C)CCC1 [13-cis-retinoic acid]
survival [1]: survival is improved significantly

CC1=C(/C=C/C(C)=C/C=C/C(C)=C/C(=O)O)C(C)(C)CCC1 [ATRA, all-trans retinoic acid, reference compound]
proliferation ([2]; 10 μM ATRA alone, day 4 (FIG. 3)): did not prevent proliferation
inhibition of cellular proliferation ([2]; 25 μM ATRA alone, 4 or 7 days (FIG. 2)): did not impair cellular proliferation until after day 4
rate of cellular proliferation ([3]; ATRA at 50 μM alone, seven days, vs vehicle (FIG. 8)): decreased rates of cellular proliferation as compared to the control
inhibition of cellular proliferation ([3]; ATRA at 50 μM, 20 μM, 5 μM, three days (FIG. 5)): inhibits proliferation of medulloblastoma cells; also recorded: inhibited proliferation to varying degrees
cellular proliferation ([4]; long-term treatment with ATRA, demonstrated previously): can inhibit cellular proliferation
cellular migration and invasion ([4]; short term treatment (1-3 days) with ATRA (Joshi et al 2006)): induced cellular migration and invasion
cellular proliferation ([5]; varying concentration of ATRA (Chang et al., 2007; Gumireddy et al., 2003)): inhibits cellular proliferation

CN1CCN(C(=O)C2C(C(=O)O)[C@H]3CC[C@@H]2O3)CC1 (stereo partly shown) [Compound 100]
inhibition of cellular proliferation ([2]; 5 μM Compound 100 alone, 4 or 7 days (FIG. 2)): failed to significantly inhibit cellular proliferation
proliferation inhibition ([2]; 10 μM ATRA and 10 μM Compound 100 (FIG. 3)): exhibited high levels of proliferation inhibition
proliferation ([2]; 10 μM Compound 100 alone (FIG. 3)): proliferation was greatly reduced
synergy in combinations ([2]; 10 μM Compound 100 with 10 μM ATRA, 2.5 mM valproic acid or both (FIG. 3)): synergistically enhanced the activity of ATRA, valproic acid and valproic acid in combination with ATRA
proliferation inhibition ([2]; 2.5 mM valproic acid and 10 μM Compound 100 (FIG. 3)): exhibited high levels of proliferation inhibition
proliferation inhibition ([2]; 2.5 mM valproic acid, 10 μM ATRA and 10 μM Compound 100 (FIG. 3)): severely inhibits proliferation of neuroblastoma cells; also recorded: exhibited high levels of proliferation inhibition
inhibition of cell proliferation ([2]; Compound 100 at 1 μM and 5 μM, day 4, vs vehicle (FIG. 1)): little or no inhibition of cell proliferation
cell growth ([2]; Compound 100 at 1 μM and 5 μM, day 7, vs vehicle (FIG. 1)): enhanced cell growth
inhibition of proliferation ([2]; Compound 100 at 1, 5, 10, 20, 50 μM for 4 or 7 days (FIG. 1 legend)): inhibits proliferation of neuroblastoma cells
growth inhibition ([2]; Compound 100 at doses less than 50 μM, day 7 (FIG. 1)): escape of growth inhibition
cellular proliferation ([2]; Compound 100 at low doses): slightly stimulates cellular proliferation
inhibition of cell proliferation ([2]; Compound 100 at the three higher doses (10, 20, 50 μM), day 4 (FIG. 1)): Dose dependent inhibition
inhibition of cellular proliferation ([2]; combination of 5 μM Compound 100 and 25 μM ATRA, day 4 and day 7 (FIG. 2)): inhibits proliferation of neuroblastoma cells
inhibition of cellular proliferation ([2]; combination of 5 μM Compound 100 and 25 μM ATRA, day 4 and day 7 (FIG. 2), listed as compound 100): potentiated the extent of inhibition by ATRA
rate of cellular proliferation ([3]; 20 μM Compound 100, three days (FIG. 4, squares)): greatest decrease in cellular proliferation
rate of cellular proliferation ([3]; Compound 100 at 1 μM, 5 μM and 20 μM, three days, vs vehicle (FIG. 4)): inhibits proliferation of medulloblastoma cells; also recorded: decreased rates of cellular proliferation as compared to the control
proliferation of xenograft (xenograft mass) [6]: inhibits the proliferation of the medulloblastoma cell line DAOY xenograft tumors; also recorded: inhibit the proliferation of DAOY cells
proliferation of xenograft (xenograft mass) ([7]; Compound 100 1.5 mg/kg daily intraperitoneally for 14 days, 1.5 mg/kg): inhibits the proliferation of the neuroblastoma cell line SHSY xenograft
inhibition of human cancer cells in vitro ([8]; Compound 100 in combination with trichostatin A (PCT/US2007/003095)): better then would be expected from the combination of the agents alone
inhibition of human cancer cells in vitro ([8]; Compound 100 in combination with valproic acid (PCT/US2007/003095)): better then would be expected from the combination of the agents alone
cellular proliferation ([8]; combination of ATRA with Compound 100, human glioblastoma multiforme (PCT/US2007/003095)): highly effective in preventing cellular proliferation

CC(C)(C)OC(=O)N1CCN(C(=O)C2C(C(=O)O)[C@H]3CC[C@@H]2O3)CC1 (stereo partly shown) [Compound 102]
proliferation of xenograft (xenograft mass) [6]: inhibits the proliferation of the medulloblastoma cell line DAOY xenograft tumors; also recorded: inhibit the proliferation of DAOY cells

O=C(CCCCCNC(=O)c1ccccc1S)Nc1cccnc1 [Compound 205]
rate of cellular proliferation ([3]; Compound 205 at 10 μM alone, seven days, vs vehicle (FIG. 8)): decreased rates of cellular proliferation as compared to the control; also recorded: inhibits proliferation of the medulloblastoma cell line DAOY
rate of cellular proliferation [3, 9]: inhibits proliferation of the medulloblastoma cell line DAOY
synergy in combination [3, 9]: synergistically active
rate of cellular proliferation ([3]; compound 205 at 10 μM combined with ATRA at 50 μM, seven days (FIG. 8), listed as compound 205): marked decrease in the rate of cellular proliferation
proliferation of xenograft (xenograft mass) ([7]; Compound 205 10 mg/kg daily intraperitoneally for 14 days, 10 mg/kg): inhibits the proliferation of the neuroblastoma cell line SHSY xenograft

CCCC(CCC)C(=O)O [valproic acid, reference compound]
proliferation ([2]; 2.5 mM valproic acid alone (FIG. 3)): proliferation was greatly reduced
inhibition of proliferation ([2]; 2.5 mM valproic acid and 10 μM ATRA (FIG. 3)): exhibited inhibition of proliferation
inhibition of proliferation ([3]; valproic acid at 2 mM, 1 mM or 0.5 mM, three days (FIG. 6)): inhibits proliferation of medulloblastoma cells; also recorded: inhibition of proliferation
cell proliferation ([5]; 0.6 mmol/L valproic acid, 21 days (Li, et al., 2005)): suppressed cell proliferation
cell proliferation ([5]; 1 mmol/L valproic acid, 10 days (Li, et al., 2005)): suppressed cell proliferation
